Assay results as given in patent publication US20100120843A1, “PHARMACEUTICAL COMPOSITION FOR TREATING ALCOHOL-INDUCED LIVER INJURY COMPRISING (4S,5S)-5-FLUOROMETHYL-5-HYDROXY-4-(AMINO)-DIHYDROFURAN-2-ONE OR PHARMACEUTICALLY ACCEPTABLE SALT THEREOF” (LG Life Sciences Ltd., priority 2008, published 2010).

Columns and labels:
liver = assay: Histological assessment of liver (H&E and Masson's trichrome); format: in vivo, rat
Text: (§1) Male Sprague-Dawley rats (5 weeks of age, 170 g of body weight) were divided into four experimental groups: control diet group, control diet with CF1 group, ethanol (EtOH) diet group and EtOH diet with CF1 group. Control diet group, control diet with CF1 group, EtOH diet group, and EtOH diet with CF1 group were fed, respectively, with Lieber-Decarli control diet, Lieber-Decarli control diet and CF1, Lieber-Decarli liquid diet containing 6% ethanol, and Lieber-Decarli liquid diet containing 6% ethanol and CF1 for 12 weeks. CF1 was dissolved in PEG (polyethylene glycol) 400 and 5% ethanol solution (PEG 400:ethanol=2:1), and administered daily at 10 mg/kg by oral gavage. About 8 hours prior to rats' sacrifice, lipopolysaccharide (LPS) was intraperitoneally injected to increase the liver injury in the amount of 1 mg/kg.
The extracted livers were fixed by 10% neutral formalin in PBS (phosphate buffered saline). Then, a paraffin section of 4 μm thickness was prepared, and stained with H&E (Hematoxylin & Eosin) and Masson's trichrome. The stained tissue was photographed at 100 times magnification (FIGS. 4A and 4B).

caspase-8 = molecular target: T1, caspase-8 (Rattus norvegicus, UniProt Q9JHX4); assay: Fluorometric assay of caspase-8 activity in cellular extraction of liver tissue; format: in vivo; settings: EtOH diet with CF1 10 mg/kg oral daily, 12 weeks, LPS 1 mg/kg i.p. 8 h before sacrifice; FIG. 2
T1 construct: the activities of caspase-3 and caspase-8 were assayed in cellular extraction of liver tissue; from tissue; host or cells: liver of Sprague-Dawley rats dosed orally with CF1
T1 sequence (Q9JHX4 219-378 limits assumed): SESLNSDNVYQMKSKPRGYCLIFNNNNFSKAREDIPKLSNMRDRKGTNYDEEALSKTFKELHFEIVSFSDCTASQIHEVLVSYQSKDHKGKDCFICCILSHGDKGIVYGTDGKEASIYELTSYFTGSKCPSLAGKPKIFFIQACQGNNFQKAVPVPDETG
T1 sequence (Q9JHX4 389-482 limits assumed): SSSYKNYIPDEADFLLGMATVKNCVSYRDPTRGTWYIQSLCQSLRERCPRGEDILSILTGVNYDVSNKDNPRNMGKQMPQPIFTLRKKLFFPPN
Text: as §1
(§2) To investigate the role of caspase in alcohol-induced liver injury, the activities of caspase-3 and caspase-8 were assayed in cellular extraction of liver tissue. The activities of caspase-3 and caspase-8 were assayed by using EnzChek™ Caspase Assay Kit molecular Probes, USA) according to the manufacturer's instructions.

[1] = Determination of serum liver enzymes (AST, ALT) in association with liver injury; format: in vivo, rat; settings: 12 weeks
Text: as §1
Liver injury was assessed by a biochemical assay of liver enzyme. After the 12 weeks' experiment, the blood samples were obtained from all rats' heart. Serum aspartate transaminase (AST) and alanine transaminase (ALT) values were analyzed for 100 μl of plasma from each blood sample with Hitachi 7050 automatic analyzer (Hitachi, Japan).

caspase-3 = molecular target: T2, caspase-3 (Rattus norvegicus, UniProt P55213); assay: Fluorometric assay of caspase-3 activity in cellular extraction of liver tissue; format: in vivo; settings: EtOH diet with CF1 10 mg/kg oral daily, 12 weeks, LPS 1 mg/kg i.p. 8 h before sacrifice; FIG. 1
T2 construct: the activities of caspase-3 and caspase-8 were assayed in cellular extraction of liver tissue; from tissue; host or cells: liver of Sprague-Dawley rats dosed orally with CF1
T2 sequence (P55213 29-175 limits assumed): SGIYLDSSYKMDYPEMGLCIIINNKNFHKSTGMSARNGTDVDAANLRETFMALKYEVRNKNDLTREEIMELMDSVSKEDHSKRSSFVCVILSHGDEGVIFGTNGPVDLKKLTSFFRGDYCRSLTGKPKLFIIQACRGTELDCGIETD
T2 sequence (P55213 176-277 limits assumed): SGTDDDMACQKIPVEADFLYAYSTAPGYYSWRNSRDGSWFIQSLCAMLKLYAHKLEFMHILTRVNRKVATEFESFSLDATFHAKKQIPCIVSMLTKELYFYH
Text: as §1, §2

apoptosis of liver cell = assay: TUNEL staining of liver tissue (apoptosis of liver cell); format: in vivo, rat
Text: as §1
To investigate apoptosis of liver cell according to alcohol ingestion, TUNEL staining was processed. TUNEL staining was carried out using in situ Cell Death Detection Kit (Roche Diagnostics, Germany) according to the manufacturer's instructions.
Stained tissue was photographed at 100 times magnification (FIG. 5). TUNEL positive cells per field were calculated.

CC(C)[C@@]1(C(=O)N[C@H]2CC(=O)O[C@]2(O)CF)CC(c2nccc3ccccc23)=NO1 [CF1, (4S,5S)-5-fluoromethyl-5-hydroxy-4-({[(5R)-5-isopropyl-3-(isoquinolin-1-yl)-4,5-dihydro-5-isoxazolyl]carbonyl}amino)-dihydrofuran-2-one]
Hepatic fibrosis (Masson's trichrome) (liver; Alcohol diet with CF1 compared with control diet groups, no statistical significance, FIG. 4B): some progression of hepatic fibrosis | Fatty liver (H&E staining) (liver; Alcohol diet with CF1 vs alcohol diet group, FIG. 4A): inhibited the increase of fatty liver | caspase-8 activity in liver tissue (caspase-8): decreased to the level of control group | Serum alanine transaminase (ALT) ([1]; Alcohol diet with CF1 10 mg/kg oral daily, alcohol diet group 336±163 IU/L): 120±10 IU/L | Serum aspartate transaminase (AST) ([1]; Alcohol diet with CF1 10 mg/kg oral daily, alcohol diet group 454±175 IU/L): 194±22 IU/L | Serum AST and ALT values compared with control diet group ([1]; Control diet with CF1 10 mg/kg oral daily, FIG. 3): did not show significant change | caspase-3 activity in liver tissue (caspase-3): decreased to the level of control group | TUNEL positive cells per field (apoptosis of liver cell; Alcohol diet with CF1 10 mg/kg oral daily, 12 weeks, alcohol diet group 25.14±9.14, control diet group 10.3±1.9): 6.4±1.1 TUNEL positive cells/field | TUNEL positive cells (apoptosis of liver cell; Control diet with CF1 group, FIGS. 5 and 6): rarely observed
